{
  "source": "patent US20250243520A1",
  "about": "“PRODUCTION METHOD FOR L-CYCLIC AMINO ACIDS” (UBE CORPORATION, priority 2019, published 2025)",
  "key": {"[1]": {"system": "Morus alba imino acid (imine) reductase MaP2CR, GST-fused, SEQ ID NO: 10 (MaP2CR: SEQ ID NO: 4)", "test": "Analysis of enzymatic catalytic activity: reduction of PipC2 with varied NADPH, absorbance at 340 nm (MaP2CR)", "type": "biochemical"}, "[2]": {"molecular_target": "T1, Pseudomonas putida PipC2 reductase dpkA (Pseudomonas putida, UniProt Q5FB93)", "T1 sequence (Q5FB93 whole entry)": "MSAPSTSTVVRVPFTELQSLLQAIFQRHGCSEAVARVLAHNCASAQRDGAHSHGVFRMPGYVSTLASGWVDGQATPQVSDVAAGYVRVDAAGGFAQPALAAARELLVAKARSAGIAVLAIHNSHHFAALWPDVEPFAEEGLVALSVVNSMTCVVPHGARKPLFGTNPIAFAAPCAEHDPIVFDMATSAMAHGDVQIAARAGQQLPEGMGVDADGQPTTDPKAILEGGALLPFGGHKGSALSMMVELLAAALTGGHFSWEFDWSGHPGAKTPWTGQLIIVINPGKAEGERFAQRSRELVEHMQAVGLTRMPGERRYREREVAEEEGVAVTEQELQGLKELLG", "design": "NADP Vmax: unit not given here", "conditions": "cited from earlier work"}, "[3]": {"molecular_target": "T1, Pseudomonas putida PipC2 reductase dpkA", "test": "Literature kinetics of PipC2 reductase dpkA (Muramatsu et al., 2005)", "type": "biochemical", "conditions": "Table 5; literature value; molecular weight 35954"}, "[4]": {"system": "Lathyrus japonicus imino acid (imine) reductase LjP2CR, GST-fused, SEQ ID NO: 12 (LjP2CR: SEQ ID NO: 6)", "test": "Analysis of enzymatic catalytic activity: reduction of PipC2 with varied NADPH, absorbance at 340 nm (LjP2CR)", "type": "biochemical"}, "[5]": {"test": "Enzyme reaction with PipC2 enzyme synthesis solution and *NADPH; products analysed by LCMS and chiral HPLC", "type": "biochemical", "conditions": "10 mM *NADPH, 30° C., 120 minutes", "description": "An enzyme reaction was carried out using each enzyme solution (purified P2CR recombinant enzyme solution) obtained in Example 1. The reaction was carried out using a 1.5 mL Eppendorf tube as the reaction vessel, and using each enzyme reaction solution in a volume of 100 μL. Since PipC2 which serves as the substrate is not commercially available, one obtained from L-lysine by enzyme synthesis, using the aminotransferase MaALDI obtained in Reference Example 1 to be described later, was used.\nThe enzyme reaction was carried out using a shaking incubator (manufactured by AS ONE Corporation), at a reaction temperature of 30° C. with shaking at 1,000 rpm. The reaction time was set to 120 minutes. Heating was performed at a reaction temperature of 98° C. for five minutes to inactivate the enzyme, and the reaction was terminated. Subsequently, the reaction solution was centrifuged at 15,000 rpm at room temperature for 10 minutes, and the resulting supernatant was used as a PipC2 enzyme synthesis solution.\nThereafter, the reaction was carried out under the same conditions as the reaction using the enzyme MaALDI described above, to obtain an enzyme reaction product.\nEach of the enzyme reaction products was analyzed by liquid chromatography-mass spectrometry (LCMS). First, each sample (enzyme reaction product) was subjected to a derivatization treatment. Using AccQ·Tag Ultra Derivatization Kit (manufactured by Waters Corporation), a mixture of each sample was prepared according to the composition shown in Table 3. The derivatizating reagent solution was added at last. After mixing, the mixture was incubated at 55° C. for 10 minutes.\nEach sample which had been subjected to the derivatization treatment was diluted two-fold with pure water, and used as a sample for LCMS analysis.\nWhen the activities of the enzyme reaction products were analyzed by LCMS analysis, it was confirmed that the products had the same retention time as that of L-PipA as the standard, and that novel peaks of the MS pattern were observed. Further, it was unable to detect PipA in the control. […]"}, "[6]": {"conditions": "Table 5, values determined by ANEMONA, GST-fused protein"}, "[7]": {"conditions": "Table 5, values determined by ANEMONA, GST-fused protein, read-out: NADP Km"}},
  "note": "Read-outs that look alike come from different tables or passages of the source.",
  "data": [
    {"molecule": "NC(=O)C1=CN([C@@H]2O[C@H](COP(=O)(O)OP(=O)(O)OC[C@H]3O[C@@H](n4cnc5c(N)ncnc54)[C@H](OP(=O)(O)O)[C@@H]3O)[C@@H](O)[C@H]2O)C=CC1", "note": "[NADPH, reduced nicotinamide adenine dinucleotide phosphate]", "values": [
      {"measurement": "Vmax", "setting": "[1]; Hanes-Woolf plot, NADPH 0.5-80 μM, Tris-HCl pH 7.2", "value": 24.00, "unit": "nmol/min/mg"},
      {"measurement": "Km", "setting": "[1]; Hanes-Woolf plot, NADPH 0.5-80 μM, Tris-HCl pH 7.2, read-out: Km", "value": 6.16, "unit": "µM"},
      {"measurement": "Activity per one molecule of enzyme kcat", "setting": "[1]; Table 5, GST-fused protein, molecular weight 61792", "value": 0.0217, "unit": "s⁻¹"},
      {"measurement": "NADP Vmax", "setting": "[1]; [6]", "value": 21},
      {"measurement": "Km", "setting": "[1]; [7]", "value": 3.6, "unit": "µM"},
      {"measurement": "Vmax", "setting": "[1]; nonlinear regression by ANEMONA, NADPH 0.5-80 μM, Tris-HCl pH 7.2", "value": 21.2, "unit": "nmol/min/mg"},
      {"measurement": "Km", "setting": "[1]; nonlinear regression by ANEMONA, NADPH 0.5-80 μM, Tris-HCl pH 7.2, read-out: Km", "value": 3.57, "unit": "µM"},
      {"measurement": "Vmax", "setting": "[2]; Muramatsu et al. 2005", "value": 220, "unit": "nmol/min/mg"},
      {"measurement": "Km", "setting": "[2]; Muramatsu et al. 2005, read-out: Km", "value": 140, "unit": "µM"},
      {"measurement": "NADP Vmax", "setting": "[2]; Table 5, literature value", "value": 220},
      {"measurement": "Km", "setting": "[2]; Table 5, literature value, read-out: NADP Km", "value": 140, "unit": "µM"},
      {"measurement": "Activity per one molecule of enzyme kcat", "setting": "[3]", "value": 0.132, "unit": "s⁻¹"},
      {"measurement": "Vmax", "setting": "[4]; Hanes-Woolf plot, NADPH 10-500 μM, Tris-HCl pH 7.2", "value": 199.55, "unit": "nmol/min/mg"},
      {"measurement": "Km", "setting": "[4]; Hanes-Woolf plot, NADPH 10-500 μM, Tris-HCl pH 7.2, read-out: Km", "value": 170, "unit": "µM"},
      {"measurement": "Activity per one molecule of enzyme kcat", "setting": "[4]; Table 5, GST-fused protein, molecular weight 63449", "value": 0.198, "unit": "s⁻¹"},
      {"measurement": "NADP Vmax", "setting": "[4]; [6]", "value": 187},
      {"measurement": "Km", "setting": "[4]; [7]", "value": 155, "unit": "µM"},
      {"measurement": "Vmax", "setting": "[4]; nonlinear regression by ANEMONA, NADPH 10-500 μM, Tris-HCl pH 7.2", "value": 187.3, "unit": "nmol/min/mg"},
      {"measurement": "Km", "setting": "[4]; nonlinear regression by ANEMONA, NADPH 10-500 μM, Tris-HCl pH 7.2, read-out: Km", "value": 155, "unit": "µM"}
    ]},
    {"molecule": "MaP2CR: imino acid reductase derived from Morus alba, SEQ ID NO: 4; GST-fused form SEQ ID NO: 10 (protein, listed as Morus alba) MASTTTAITSPIFITTQSFHTILSRQTLMDHFHSSLPTVSASLSTPLRQNHAVSPTSSLLLMPSWSTSPSLPYIGVKLVTYFPQSSTLSLPGIHASYVLFSSATGQTLASMDGTALTLFRTSCVSGLASRILARDDSKVLVMIGAGALAPHLIKAHLTARPGLERVVIWNRTVEKARNLAEQLQQSSGLDGVCFESNGCLEEVVGMGDIVSCATNSEAPLVKGQKLKPGAHLDLVGSFKHSMRECDDEAIQRGRIFVDNEAALVEAGELVGAFERGVITKEDIGGNLVELIMGEKVGRRDSEEVTVFKSVGSAAVDILAAQLVYETYLQQNN", "values": [
      {"measurement": "ability to reduce PipC2 to convert to PipA (LCMS of enzyme reaction products)", "setting": "[5]", "value": "have the ability to reduce PipC2 to convert to PipA"}
    ]},
    {"molecule": "AtP2CR: imino acid reductase derived from Arabidopsis thaliana, SEQ ID NO: 2; GST-fused form SEQ ID NO: 8 (protein, listed as Arabidopsis thaliana) MAALPVFIPAESFPSILSHETLINHFRTNLPKHSSTITSPVRQNYTVSSPSSLLLMPSWSSSSSLPYMGVKLVTYFPHNSSQNLPGIHGSYTLFSSTTGQTLATMDGTVLTLYRTSSVSGLGSKILARDDSQVLIMVGSGALAPHLIKSHLAARPSLRRVIIWNRTPQRAQELAETLSKDPQHKEISFDSHDSLDQIIPLGDIISCATNSTVPLVKGEFLKPGTHLDLAGSFSHEMKECDDNAIQRGSVFVDNDTAMIEAGELAGAFERGVIKREDICGNLVELIKGDKEGRKSSTDITVFKSVGSGTVDLLTAQLVHETYLSRC", "values": [
      {"measurement": "ability to reduce PipC2 to convert to PipA (LCMS of enzyme reaction products)", "setting": "[5]", "value": "have the ability to reduce PipC2 to convert to PipA"}
    ]},
    {"molecule": "LjP2CR: imino acid reductase derived from Lathyrus japonicus, SEQ ID NO: 6; GST-fused form SEQ ID NO: 12 (protein, listed as Lathyrus japonicus) MASANKDQKTTNTVSSSSSSSSPIFISTENLQTILTHQTLMKHIDSNLPKVSTFLQTPIRQHYSLSPSSSLLLMPSWSSSSSFPYVGVKLVTHFPQNSSINLPGVQGSYVLFNSTTGQTLASMDSTELTLYRTSCVSGLASRYLSRDDSEVLVMVGAGPLAPHLIRAHFSARPSLRKVLIWNRTVEKAEALAKNLRESDEFSLSGLSFEGCGCLNEVVGLGDIVSCATNSEMALVKGERLKVGAHLDLVGSFKPSMKECDDEALKRGKVFVDNEAALVEAGELVGAFERGVIKEDEIEANLVELIRGDKVGRRSSEEITVFKSVGSAVVDMLAAQFVYESYIGK", "values": [
      {"measurement": "ability to reduce PipC2 to convert to PipA (LCMS of enzyme reaction products)", "setting": "[5]", "value": "have the ability to reduce PipC2 to convert to PipA"}
    ]}
  ]
}
